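Results reflect a 48-hour exposure of cells in 96-well plates to compound at five concentrations. GI50 is the concentration that inhibits growth by half. TGI marks complete inhibition of growth.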 Where a SMILES comes first, the peptide text is derived from it.
Columns and labels:
Assay in all cases: inhibition of tumour cell growth, NCI panel, 48 h
MCF7 breast = tested on: MCF7 breast
786-0 renal = tested on: 786-0 renal
NCI-H23 lung = tested on: NCI-H23 lung
HT29 colon = tested on: HT29 colon
HOP-92 NSCLC = tested on: HOP-92 NSCLC
SNB-19 CNS = tested on: SNB-19 CNS
SK-OV-3 ovarian = tested on: SK-OV-3 ovarian
MALME-3M melanoma = tested on: MALME-3M melanoma
SK-MEL-5 melanoma = tested on: SK-MEL-5 melanoma
HCC-2998 colon = tested on: HCC-2998 colon

| Structure (SMILES) | TGI (MCF7 breast) [µM] | TGI (786-0 renal) [µM] | TGI (NCI-H23 lung) [µM] | TGI (HT29 colon) [µM] | TGI (HOP-92 NSCLC) [µM] | TGI (SNB-19 CNS) [µM] | TGI (SK-OV-3 ovarian) [µM] | TGI (MALME-3M melanoma) [µM] | TGI (SK-MEL-5 melanoma) [µM] | TGI (HCC-2998 colon) [µM] | GI50 (NCI-H23 lung) [µM] | GI50 (HOP-92 NSCLC) [µM] | GI50 (SNB-19 CNS) [µM] | GI50 (SK-OV-3 ovarian) [µM] | GI50 (MALME-3M melanoma) [µM] | GI50 (SK-MEL-5 melanoma) [µM] |
| --- | --- | --- | --- | --- | --- | --- | --- | --- | --- | --- | --- | --- | --- | --- | --- | --- |
| Cc1cc2c(cc1Cl)SC(c1ccccc1O)NS2(=O)=O (centres undefined) | > 100 | > 100 | > 100 | > 100 | > 100 | > 100 | > 100 | 61.8 | > 100 | > 100 |  |  |  |  |  |  |
| COC(=O)[C@]12CSC[C@H]1C[C@H](c1cccc3ccccc13)N2 | > 100 | > 100 | > 100 |  | > 100 | > 100 | > 100 |  | > 100 | > 100 |  |  |  |  |  |  |
| O=C1CC2CC(CC3(CO3)C2)C1F (centres undefined) | > 100 | > 100 | > 100 | > 100 | > 100 | > 100 | > 100 | > 100 | > 100 | > 100 |  |  |  |  |  |  |
| O=C(CSSCC(=O)OCCS(=O)(=O)Nc1ccc(Br)cc1)OCCS(=O)(=O)Nc1ccc(Br)cc1 |  |  | 64 | 31.8 | 51.5 | > 100 | 89.8 | 22.8 | 26 | 25.9 |  |  |  |  |  |  |
| O=c1c(-c2ccccc2)c(SCCN2CCOCC2)n(-c2ccccc2)c(=S)n1-c1ccccc1 | > 100 |  | > 100 |  | > 100 |  | > 100 | > 100 | > 100 | > 100 |  |  |  |  |  |  |
| COc1cc(/C=C2\N=C(c3ccccc3)N(c3nc4ccc(Sc5ccccc5)cc4[nH]3)C2=O)cc(OC)c1OC | 45.9 | 42.4 | 97.3 | 48.4 | > 100 | > 100 | > 100 | 40.3 | 26.3 | 30.3 |  |  |  |  |  |  |
| Cc1cc(=O)n2c3c(c4c(cc13)c(CN(C)C)cc(=O)n4C)OC2 | > 60.5 | > 100 | 50.2 | > 45.9 | 97.6 | > 74.6 | > 94.7 | 30.4 | 45.1 | 35.9 |  |  |  |  |  |  |
| Cn1c2cn[nH]c(=O)c2c2ccc3ccccc3c21 | > 100 | 42.1 | 67.2 | > 100 | 60.8 | > 100 | > 100 | > 100 | > 100 |  |  |  |  |  |  |  |
| COc1ccc2c(c1)CCCc1c-2nc2ccccc2c1N | 24.9 | 18.5 | 31.6 | 13.7 | 18.9 | 31.8 | 24.2 | 27.1 | 15.1 | 3.34 |  |  |  |  |  |  |
| O=C(NC(Cc1ccc(Cl)cc1)C(=O)O)c1ccc(I)cc1 (centres undefined) | > 100 |  | > 100 | > 100 | > 100 | > 100 | > 100 | > 100 | > 100 |  |  |  |  |  |  |  |
| COc1ccc(N=Nc2c(N)nn(C)c2N)cc1 |  | > 100 | > 100 | > 100 | > 100 | > 100 | > 100 | > 100 | > 100 |  |  |  |  |  |  |  |
| CCCCCCCCCCCCSC(=S)c1c(C)[nH]n(CCCCCCCCCCCC)c1=O |  |  | > 100 | > 100 |  | > 100 | > 100 | > 100 | > 100 | > 100 |  |  |  |  |  |  |
| O=C1CS(=O)(=O)C(c2cccc(Oc3ccccc3)c2)N1C1CC1 (centres undefined) | 58 | > 100 | > 100 | > 100 | > 100 | > 100 | 67.7 | > 100 | 39.3 | > 100 |  |  |  |  |  |  |
| CN1NC(c2ccccc2)=C(C#N)C(=O)CC1c1ccc(F)cc1 (centres undefined) |  |  | > 100 | > 100 | > 100 | > 100 | > 100 | > 100 | > 100 | > 100 |  |  |  |  |  |  |
| CCC(C)C(NC(=O)C(CC(C)C)NC(=O)CNC(=O)C(NC(=O)C1CCCN1C(=O)C(CC(C)C)NC(=O)C(N)Cc1ccccc1)C(C)CC)C(=O)NC(CC(C)C)C(N)=O (centres undefined) (H-FLPIGLIL-NH2; configuration not given here) | > 75 | > 75 | > 75 | > 75 | > 75 | > 75 | > 75 | > 75 | > 75 |  |  |  |  |  |  |  |
| Cc1ccc(C(=O)N/N=C(\N=Nc2ccccc2Cl)c2ccc(N(C)C)cc2)cc1 | > 100 | > 100 | > 100 | > 100 | > 100 | 84.5 | > 100 |  | > 100 | > 100 |  |  |  |  |  |  |
| CC(C)(C)c1cc(-c2nc3ccc(N4CCN(CCO)CC4)cc3[nH]2)cc(C(C)(C)C)c1O |  |  | > 100 |  | 4.44 | > 100 | 86.1 | 2.83 | 3.14 |  | 4.65 | 1.41 | 3.48 | 12.7 | 1.47 | 1.74 |
| CCCCCCCCCCCCCCCCCC(=O)OCC1OC(OC)C(NC(=O)N(CCCl)N=O)C(O)C1O (centres undefined) |  |  | 43 | 63.6 |  | > 100 |  | 78.3 | > 100 | > 100 |  |  |  |  |  |  |
| CCC12C=CCN3CCC4(c5cc(C(c6ccc(OC)cc6)C6Cc7ccccc7N6)c(OC)cc5N(C)C4C(O)(C(=O)OC)C1O)C32 (centres undefined) | 28.3 | > 100 | > 100 | > 100 | 8.14 | > 100 | > 100 | > 100 | 52 | 57.5 |  |  |  |  |  |  |
| CCN(CCO)CCNc1ccc(C)c2sc3ccccc3c(=O)c12 | 3.24 | 8.57 | 21.3 | 6.31 | 14.1 | 24.7 | 18.1 | 8.05 | 7.66 | 5.2 |  |  |  |  |  |  |
